Assay results from patent US8921376B2, “Pyrrolopyridines useful as inhibitors of protein kinase” (Vertex Pharmaceuticals Incorporated, priority 2005, dated 2014).

What was measured:
Type in all cases: biochemical
JAK3 = target: T1, JAK3 (Homo sapiens, UniProt P52333); assay: JAK3 inhibition assay (33P incorporation into poly(Glu)4Tyr); details: enzyme inhibition, Table 5
T1 sequence (P52333 1-1124): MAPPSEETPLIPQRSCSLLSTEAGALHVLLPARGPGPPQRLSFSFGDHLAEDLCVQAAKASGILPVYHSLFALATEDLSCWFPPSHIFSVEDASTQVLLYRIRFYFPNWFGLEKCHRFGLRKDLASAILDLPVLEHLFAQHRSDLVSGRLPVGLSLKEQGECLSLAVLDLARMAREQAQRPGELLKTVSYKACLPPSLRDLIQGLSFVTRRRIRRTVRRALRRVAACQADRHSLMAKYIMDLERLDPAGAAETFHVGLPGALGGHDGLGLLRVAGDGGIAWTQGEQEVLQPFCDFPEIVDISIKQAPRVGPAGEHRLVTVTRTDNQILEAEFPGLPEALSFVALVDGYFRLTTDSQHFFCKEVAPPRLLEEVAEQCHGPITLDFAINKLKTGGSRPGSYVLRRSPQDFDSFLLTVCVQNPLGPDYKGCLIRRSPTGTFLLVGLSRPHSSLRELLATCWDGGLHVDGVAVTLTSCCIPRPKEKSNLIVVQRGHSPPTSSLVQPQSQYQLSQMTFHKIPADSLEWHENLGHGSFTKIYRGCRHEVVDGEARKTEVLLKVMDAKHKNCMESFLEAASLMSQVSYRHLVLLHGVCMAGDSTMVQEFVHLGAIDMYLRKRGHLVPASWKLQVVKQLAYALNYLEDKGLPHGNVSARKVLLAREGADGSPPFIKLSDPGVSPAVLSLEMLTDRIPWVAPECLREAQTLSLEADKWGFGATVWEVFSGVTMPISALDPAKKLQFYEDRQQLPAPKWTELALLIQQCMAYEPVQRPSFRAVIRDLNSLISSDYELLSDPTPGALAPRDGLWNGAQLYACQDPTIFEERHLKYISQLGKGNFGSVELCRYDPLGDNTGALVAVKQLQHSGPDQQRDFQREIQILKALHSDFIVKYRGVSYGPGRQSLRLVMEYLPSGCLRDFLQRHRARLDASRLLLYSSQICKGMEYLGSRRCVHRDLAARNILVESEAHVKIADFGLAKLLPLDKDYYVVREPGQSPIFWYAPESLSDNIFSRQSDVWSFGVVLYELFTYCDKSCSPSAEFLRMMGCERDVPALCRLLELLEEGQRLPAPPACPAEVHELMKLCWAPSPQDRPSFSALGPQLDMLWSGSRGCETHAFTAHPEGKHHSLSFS
Procedure, shortened: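 After TCA quench and filter harvest, scintillation counting of 33P measured phosphorylation of poly(Glu)4Tyr (1 μM) by 1 nM JAK3. The 20-min, 25° C. reaction contained 5 μM ATP (200 μCi/μmole) in pH 7.4 HEPES buffer with 10 mM MgCl2.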

JAK2 = JAK2 (Homo sapiens, UniProt O60674); assay: JAK2 inhibition assay (as Example 3 with JAK-2 enzyme); details: enzyme inhibition, Table 5
Procedure, shortened: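 In HEPES pH 7.4 buffer with 10 mM MgCl2, 1 mM DTT, 25 mM NaCl and 0.01% BSA, JAK2 enzyme phosphorylated poly(Glu)4Tyr (final 15 μM) using 33P-ATP (final 12 μM) for 20 min at room temperature (25 °C). Reactions stopped with TCA; incorporated 33P measured by scintillation after filtration.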

ROCK I = ROCK I (Homo sapiens, UniProt Q13464); assay: ROCK-I inhibition assay (radioactive enzyme assay, MBP substrate); details: enzyme inhibition, Ki(app), Table 5
Procedure, shortened: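 Human ROCK at 5 nM phosphorylated 27 μM myelin basic protein with 13 μM [γ-33P]ATP (final) in HEPES pH 7.5, MgCl2, NaCl, DTT and 1.5% DMSO. Reactions ran 2 h at room temperature before TCA quench and filter-plate scintillation counting. After background subtraction, data were fit to give Ki(app).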

Chain of JAK2 (O60674 whole entry): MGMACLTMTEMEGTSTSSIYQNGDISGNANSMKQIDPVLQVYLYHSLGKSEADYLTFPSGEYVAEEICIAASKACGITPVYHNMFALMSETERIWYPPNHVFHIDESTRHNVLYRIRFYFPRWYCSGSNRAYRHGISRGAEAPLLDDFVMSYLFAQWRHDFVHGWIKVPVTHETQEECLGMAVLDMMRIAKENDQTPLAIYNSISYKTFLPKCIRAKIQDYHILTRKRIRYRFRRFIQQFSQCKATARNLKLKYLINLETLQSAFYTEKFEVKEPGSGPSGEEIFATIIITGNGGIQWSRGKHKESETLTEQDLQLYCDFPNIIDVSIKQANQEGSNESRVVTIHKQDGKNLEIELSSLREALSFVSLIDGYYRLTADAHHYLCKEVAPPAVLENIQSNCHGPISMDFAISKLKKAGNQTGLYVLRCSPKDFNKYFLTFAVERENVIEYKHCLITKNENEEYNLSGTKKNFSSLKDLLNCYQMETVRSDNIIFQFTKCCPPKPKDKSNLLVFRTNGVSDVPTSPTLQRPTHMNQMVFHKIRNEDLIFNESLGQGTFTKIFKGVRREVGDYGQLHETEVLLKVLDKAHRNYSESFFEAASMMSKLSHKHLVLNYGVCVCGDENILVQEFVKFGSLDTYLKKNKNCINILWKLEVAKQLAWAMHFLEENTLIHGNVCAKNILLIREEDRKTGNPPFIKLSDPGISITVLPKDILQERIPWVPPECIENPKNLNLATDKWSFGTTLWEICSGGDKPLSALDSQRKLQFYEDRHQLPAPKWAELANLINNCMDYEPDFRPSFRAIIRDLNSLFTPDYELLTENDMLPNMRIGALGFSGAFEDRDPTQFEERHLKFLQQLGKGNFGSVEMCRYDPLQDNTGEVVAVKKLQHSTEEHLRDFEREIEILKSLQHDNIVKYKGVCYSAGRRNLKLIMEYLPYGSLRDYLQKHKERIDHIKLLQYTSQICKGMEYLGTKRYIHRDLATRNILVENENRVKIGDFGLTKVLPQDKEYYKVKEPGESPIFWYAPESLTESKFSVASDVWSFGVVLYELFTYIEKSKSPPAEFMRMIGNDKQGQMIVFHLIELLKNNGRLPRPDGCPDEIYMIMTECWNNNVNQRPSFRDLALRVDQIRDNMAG
Chain of ROCK I (Q13464 whole entry): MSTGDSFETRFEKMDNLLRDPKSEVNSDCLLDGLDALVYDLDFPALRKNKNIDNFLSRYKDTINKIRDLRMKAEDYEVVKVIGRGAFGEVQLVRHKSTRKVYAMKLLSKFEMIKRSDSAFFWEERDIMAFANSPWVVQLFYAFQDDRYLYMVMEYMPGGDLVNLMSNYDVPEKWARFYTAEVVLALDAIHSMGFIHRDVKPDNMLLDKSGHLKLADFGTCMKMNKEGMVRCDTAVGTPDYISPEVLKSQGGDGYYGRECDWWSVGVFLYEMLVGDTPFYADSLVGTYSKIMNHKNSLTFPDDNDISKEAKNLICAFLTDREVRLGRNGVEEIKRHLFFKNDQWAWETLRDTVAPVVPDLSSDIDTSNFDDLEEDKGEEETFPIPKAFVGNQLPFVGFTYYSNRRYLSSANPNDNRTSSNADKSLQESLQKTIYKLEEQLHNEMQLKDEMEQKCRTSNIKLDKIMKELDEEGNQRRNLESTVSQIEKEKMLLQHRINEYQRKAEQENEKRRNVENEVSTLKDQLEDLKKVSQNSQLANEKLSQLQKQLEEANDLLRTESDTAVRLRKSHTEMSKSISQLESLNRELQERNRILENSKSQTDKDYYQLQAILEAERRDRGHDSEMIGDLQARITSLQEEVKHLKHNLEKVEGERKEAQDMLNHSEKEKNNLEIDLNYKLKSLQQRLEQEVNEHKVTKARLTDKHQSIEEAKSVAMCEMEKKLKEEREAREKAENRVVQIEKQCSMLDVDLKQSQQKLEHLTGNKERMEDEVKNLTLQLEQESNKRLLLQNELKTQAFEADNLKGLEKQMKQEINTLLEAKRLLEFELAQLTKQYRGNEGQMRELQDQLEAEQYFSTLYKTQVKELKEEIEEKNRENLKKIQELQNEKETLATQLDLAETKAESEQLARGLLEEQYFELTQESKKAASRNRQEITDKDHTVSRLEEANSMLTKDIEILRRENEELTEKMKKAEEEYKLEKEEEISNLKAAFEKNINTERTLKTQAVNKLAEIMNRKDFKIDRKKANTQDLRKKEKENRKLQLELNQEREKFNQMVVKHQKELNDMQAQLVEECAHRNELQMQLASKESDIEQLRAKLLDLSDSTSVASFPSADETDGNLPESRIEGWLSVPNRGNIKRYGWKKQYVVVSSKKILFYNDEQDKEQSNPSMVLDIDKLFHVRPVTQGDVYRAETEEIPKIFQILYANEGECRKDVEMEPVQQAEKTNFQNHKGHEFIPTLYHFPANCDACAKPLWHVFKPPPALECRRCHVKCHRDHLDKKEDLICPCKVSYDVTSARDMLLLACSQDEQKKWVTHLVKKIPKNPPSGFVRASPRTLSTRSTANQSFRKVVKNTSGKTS

| SMILES | Ki (JAK3) | Ki (JAK2) | Ki (ROCK I) |
| --- | --- | --- | --- |
| O=C(c1cccc(-c2ccnc3[nH]ccc23)c1)N1CCOCC1 [compound 94, Morpholin-4-yl-[3-(1H-pyrrolo[2,3-b]pyridin-4-yl)-phenyl]-methanone] | 500 to 5000 nM | 500 to 5000 nM | 500 to 5000 nM |
| CN1CCN(C(=O)c2cccc(-c3ccnc4[nH]ccc34)c2)CC1 [compound 95, (4-Methyl-piperazin-1-yl)-[3-(1H-pyrrolo[2,3-b]pyridin-4-yl)-phenyl]-methanone] | > 5000 nM | > 5000 nM | 500 to 5000 nM |
| CC(C)(C(=O)O)c1cccc(-c2ccnc3[nH]ccc23)n1 [compound 96, 2-(6-(1H-pyrrolo[2,3-b]pyridin-4-yl)pyridin-2-yl)-2-methylpropanoic acid] | 500 to 5000 nM | 500 to 5000 nM | 500 to 5000 nM |
| CC(C)c1cccc(-c2ccnc3[nH]ccc23)n1 [compound 97, 4-(6-isopropylpyridin-2-yl)-1H-pyrrolo[2,3-b]pyridine] | < 500 nM | < 500 nM | < 500 nM |
| CC(=O)Nc1cccc(-c2ccnc3[nH]ccc23)n1 [compound 98, N-(6-(1H-pyrrolo[2,3-b]pyridine-4-yl)pyridin-2-yl)acetamine] | 500 to 5000 nM | < 500 nM | 500 to 5000 nM |
| O=C(Cc1ccccc1)Nc1cccc(-c2ccnc3[nH]ccc23)n1 [compound 99, N-(6-(1H-pyrrolo[2,3-b]pyridine-4-yl)pyridin-2-yl)phenylacetamide] | > 5000 nM | < 500 nM | 500 to 5000 nM |
| O=C(Nc1cccc(-c2ccnc3[nH]ccc23)n1)c1ccccc1 [compound 100, N-(6-(1H-pyrrolo[2,3-b]pyridine-4-yl)pyridin-2-yl)benzamide] | 500 to 5000 nM | < 500 nM | 500 to 5000 nM |
| N#CC1(c2cccc(-c3ccnc4[nH]ccc34)n2)CC1 [compound 101, 1-(6-(1H-pyrrolo[2,3-b]pyridin-4-yl)pyridin-2-yl)cyclopropanecarbonitrile] | < 500 nM | < 500 nM | < 500 nM |
| N#CC1(c2cccc(-c3ccnc4[nH]ccc34)n2)CCCC1 [compound 102, 1-(6-(1H-pyrrolo[2,3-b]pyridin-4-yl)pyridin-2-yl)cyclopentanecarbonitrile] | < 500 nM | < 500 nM | < 500 nM |
| N#CC1(c2cccc(-c3ccnc4[nH]ccc34)n2)CCCCC1 [compound 103, 1-(6-(1H-pyrrolo[2,3-b]pyridin-4-yl)pyridin-2-yl)cyclohexanecarbonitrile] | < 500 nM | < 500 nM | < 500 nM |
| c1ncc(-c2ccnc3[nH]ccc23)cn1 [compound 104, 4-Pyrimidin-5-yl-1H-pyrrolo[2,3-b]pyridine] | 500 to 5000 nM | 500 to 5000 nM | 500 to 5000 nM |
| Oc1cccc(-c2ccnc3[nH]ccc23)c1 [compound 105, 3-(1H-Pyrrolo[2,3-b]pyridin-4-yl)-phenol] | < 500 nM | < 500 nM | < 500 nM |
| c1cc(-c2ccnc3[nH]ccc23)[nH]n1 [compound 106, 4-(2H-Pyrazol-3-yl)-1H-pyrrolo[2,3-b]pyridine] | < 500 nM | 500 to 5000 nM | < 500 nM |
| CC(=O)Nc1cccc(-c2ccnc3[nH]ccc23)c1 [compound 107, N-[3-(1H-Pyrrolo[2,3-b]pyridin-4-yl)-phenyl]-acetamide] | 500 to 5000 nM | 500 to 5000 nM | 500 to 5000 nM |
| N#Cc1ccc(-c2ccnc3[nH]ccc23)s1 [compound 108, 5-(1H-Pyrrolo[2,3-b]pyridin-4-yl)-thiophene-2-carbonitrile] | < 500 nM | < 500 nM | < 500 nM |
| CC(C)c1cccc(-c2ccnc3[nH]ccc23)c1 [compound 109, 4-(3-Isopropyl-phenyl)-1H-pyrrolo[2,3-b]pyridine] | < 500 nM | < 500 nM | < 500 nM |
| Cc1ccc(-c2ccnc3[nH]ccc23)cc1C [compound 110, 4-(3,4-Dimethyl-phenyl)-1H-pyrrolo[2,3-b]pyridine] | < 500 nM | < 500 nM | < 500 nM |

| SMILES | Ki (JAK3) | Ki (JAK2) | Ki (ROCK I) |
| --- | --- | --- | --- |
| Cn1cc(-c2ccnc3[nH]ccc23)cn1 [compound 111, 4-(1-Methyl-1H-pyrazol-4-yl)-1H-pyrrolo[2,3-b]pyridine] | < 500 nM | < 500 nM | < 500 nM |
| Cc1cc(C)cc(-c2ccnc3[nH]ccc23)c1 [compound 112, 4-(3,5-Dimethyl-phenyl)-1H-pyrrolo[2,3-b]pyridine] | 500 to 5000 nM | < 500 nM | < 500 nM |
| FC(F)(F)c1cccc(-c2ccnc3[nH]ccc23)c1 [compound 113, 4-(3-Trifluoromethyl-phenyl)-1H-pyrrolo[2,3-b]pyridine] | 500 to 5000 nM | < 500 nM | < 500 nM |
| Nc1cccc(-c2ccnc3[nH]ccc23)c1 [compound 114, 3-(1H-Pyrrolo[2,3-b]pyridin-4-yl)-phenylamine] | 500 to 5000 nM | 500 to 5000 nM | < 500 nM |
| c1cc(-c2ccnc3[nH]ccc23)c2ccoc2c1 [compound 115, 4-Benzofuran-4-yl-1H-pyrrolo[2,3-b]pyridine] | < 500 nM | < 500 nM | < 500 nM |
| CC(C)Oc1ccc(-c2ccnc3[nH]ccc23)cc1 [compound 116, 4-(4-Isopropoxy-phenyl)-1H-pyrrolo[2,3-b]pyridine] | < 500 nM | < 500 nM | < 500 nM |
| COC(=O)c1ccccc1-c1ccnc2[nH]ccc12 [compound 117] | > 5000 nM | > 5000 nM | 500 to 5000 nM |
| CC(=O)Nc1ccccc1-c1ccnc2[nH]ccc12 [compound 118] | > 5000 nM | > 5000 nM | 500 to 5000 nM |
| Nc1ccccc1-c1ccnc2[nH]ccc12 [compound 119] | > 5000 nM | > 5000 nM | 500 to 5000 nM |
| C[C@H](Nc1ccnc(-c2ccnc3[nH]ccc23)n1)C(=O)NCC(F)(F)F [compound 120, (S)-2-(2-(1H-pyrrolo[2,3b]pyridin-4-yl)pyrimidin-4-ylamino)-N-(2,2,2-trifluoroethyl)propanamide] | < 500 nM | 500 to 5000 nM | 500 to 5000 nM |
| C[C@H](Nc1nc(-c2ccnc3[nH]ccc23)ncc1F)C(=O)NCC(F)(F)F [compound 121, (S)-2-(5-fluoro-2-(1H-pyrrolo[2,3b]pyridin-4-yl)pyrimidin-4-ylamino)-N-(2,2,2-trifluoroethyl)propanamide] | < 500 nM | 500 to 5000 nM | 500 to 5000 nM |
| C[C@H](Nc1cccc(-c2ccnc3[nH]ccc23)n1)C(=O)NCC(F)(F)F [compound 122, (S)-2-(6-(1H-pyrrolo[2,3b]pyridin-4-yl)pyridin-2-ylamino)-N-(2,2,2-trifluoroethyl)propanamide] | < 500 nM | 500 to 5000 nM | 500 to 5000 nM |
| CC(C)(O)c1cccc(-c2ccnc3[nH]ccc23)n1 [compound 123, 2-(6-(1H-pyrrolo[2,3-b]pyridin-4-yl)pyridin-2-yl)propan-2-ol] | < 500 nM | < 500 nM | < 500 nM |
| Cc1n[nH]c(C)c1-c1ccnc2[nH]ccc12 [compound 124, 4-(3,5-Dimethyl-1H-pyrazol-4-yl)-1H-pyrrolo[2,3-b]pyridine] | 500 to 5000 nM | > 5000 nM | 500 to 5000 nM |
| CC(C)(C(=O)CC#N)c1cccc(-c2ccnc3[nH]ccc23)n1 [compound 125, 4-(6-(1H-pyrrolo[2,3-b]pyridin-4-yl)pyridin-2-yl)-4-methyl-3-oxopentanitrile] | < 500 nM | < 500 nM | < 500 nM |
| Clc1cnc2[nH]ccc2c1NC1CCCCC1 [compound 126, 5-chloro-N-cyclohexyl-1H-pyrrolo[2,3-b]pyridin-4-amine] | < 500 nM | < 500 nM | < 500 nM |
